The assay can be described thus: Compound was tested for binding affinity towards Opioid receptor delta 1 in guinea pig brain homogenates using [3H][p-Cl-Phe]-DPDPE as radioligand.
A word on the Ki: it is a dissociation constant, usually derived from enzyme kinetics or from competition with a known ligand. A low value points to a stronger hold on the target. Take `C[C@@H](NC(=O)[C@@H](N)Cc1ccc(O)cc1)C(=O)NCC(=O)N[C@@H](Cc1cccc2ccccc12)C(=O)NNC(=O)[C@H](Cc1cccc2ccccc12)NC(=O)CNC(=O)[C@@H](C)NC(=O)[C@@H](N)Cc1ccc(O)cc1` [Biphalin Analogue]: the Ki was determined as 6.4 nM.
`C[C@@H](NC(=O)[C@@H](N)Cc1ccc(O)cc1)C(=O)NCC(=O)N[C@@H](Cc1ccc2ccccc2c1)C(=O)NNC(=O)[C@H](Cc1ccc2ccccc2c1)NC(=O)CNC(=O)[C@@H](C)NC(=O)[C@@H](N)Cc1ccc(O)cc1` [Biphalin Analogue] returned an inhibition constant Ki of 7.4 nM.
`C[C@@H](NC(=O)[C@@H](N)Cc1ccc(O)cc1)C(=O)NCC(=O)N[C@@H](Cc1c(F)c(F)c(F)c(F)c1F)C(=O)NNC(=O)[C@H](Cc1c(F)c(F)c(F)c(F)c1F)NC(=O)CNC(=O)[C@@H](C)NC(=O)[C@@H](N)Cc1ccc(O)cc1` [Biphalin Analogue]: the Ki was found to be 7.8 nM. This Ki and that of the compound before are within 1.5-fold of each other.
The compound `C[C@H](c1ccccc1)[C@H](NC(=O)CNC(=O)[C@@H](C)NC(=O)[C@@H](N)Cc1ccc(O)cc1)C(=O)NNC(=O)[C@@H](NC(=O)CNC(=O)[C@@H](C)NC(=O)[C@@H](N)Cc1ccc(O)cc1)[C@H](C)c1ccccc1` [2-Amino-N-((S)-1-{[((R)-1-{N'-[(R)-2-(2-{(S)-2-[2-amino-3-(4-hydroxy-phenyl)-propionylamino]-propionylamino}-acetylamino)-3-phenyl-butyryl]-hydrazinocarbonyl}-2-phenyl-propylcarbamoyl)-methyl]-carbamoyl}-ethyl)-3-(4-hydroxy-phenyl)-propionamide] showed an inhibition constant (Ki) of 110 nM.
The compound `C[C@@H](NC(=O)[C@@H](N)Cc1ccc(O)cc1)C(=O)NCC(=O)N[C@H](C(=O)NNC(=O)[C@@H](NC(=O)CNC(=O)[C@@H](C)NC(=O)[C@@H](N)Cc1ccc(O)cc1)[C@@H](C)c1ccccc1)[C@@H](C)c1ccccc1` [2-Amino-N-((S)-1-{[((S)-1-{N'-[(S)-2-(2-{(S)-2-[2-amino-3-(4-hydroxy-phenyl)-propionylamino]-propionylamino}-acetylamino)-3-phenyl-butyryl]-hydrazinocarbonyl}-2-phenyl-propylcarbamoyl)-methyl]-carbamoyl}-ethyl)-3-(4-hydroxy-phenyl)-propionamide] had an inhibitory constant (Ki) of 11 nM.

The values above are taken from BindingDB's records for doi:10.1016/s0960-894x(98)00065-1 (University of Arizona, 1999).
